# From patent publication US8912139B2, “Peptide compositions and methods for treating lung injury, asthma, anaphylaxis, angioedema, systemic vascular permeability syndromes, and nasal congestion” (The Board of Trustees of the University of Illinois, priority 2011, dated 2014)
# Entries after “also recorded” stand apart in the source; their conditions may differ. Ends that are not written are not given here. Peptide text beside a SMILES is read from it. * marks the point of attachment. Myristoyl = CCCCCCCCCCCCCC(=O)*
# Assays:
# [1] = test system: LPS-induced sepsis; assay: Survival in LPS-induced murine model of sepsis; format: in vivo, mice; settings: for survival rate, LPS LD90, pre-treatment with Myr-EBIN: Myr-EBIN 1 microM/kg i.v. 30 min prior, 1 hr and 24 hrs after LPS
# Description: (n=11-15 mice/group, p<0.001 AP-IP3R3 vs control treatment (AP control) by ANOVA. Mice were anesthetized prior to retro-orbital i.v. injection of IP3R3 with a mixture of ketamine, 10 mg/ml; xylazine, 0.25 mg/ml and acepromazine, 0.25 mg/ml.
# CD-1 mice treated with indicated doses of IP3R3 peptide were i.p. injected with LPS at LD80 dose (50 mg/kg LPS) and were monitored for 5 days. Survival rate (%) was plotted vs. peptide dose in logarithm scale. The sigmoidal dose-response curve was fitted to the data points. n=10 mice/group. Mice were anesthetized prior to retro-orbital injection of peptide with 2.5% isoflurane in room air in an anesthesia induction chamber. Anesthesia was maintained during i.v. injection using a specially designed rodent facemask with a coaxial tube (Harvard Apparatus, AH 72-3026).
# Male CD1 mice were challenged by intraperitoneal (i.p.) injection of LD90 doses of LPS. The experimental and control groups received retro-orbital, intravenous (i.v.) injection of EBIN attached to the C-terminus of cell permeant antennapedia peptide (AP) or AP alone at a concentration of 1 microM/kg. Mice were injected tree times, 30 minutes prior to and 1 hr and 24 hrs after LPS administration. Mice were anesthetized prior to retro-orbital injection with a mixture of ketamine (10 mg/ml), xylazine (0.25 mg/ml), and acepromazine (0.25 mg/ml).
# FIG. 19 compares the effect of pre- and post treatment with EBIN (SEQ ID NO: 3) on lethality from LPS-induced sepsis. […] Male CD1 mice were challenged by intraperitoneal (i.p.) injection of LD90 doses of LPS. The experimental and control groups received tail vein (i.v.) injection of Myr-EBIN 30 min prior (pre-treatment) or 30 min after (post-treatment) LPS or Myr-control loss-of-binding peptide at a concentration of 1 microM/kg. Pre-treatment group, mice were injected tree times, 30 minutes prior to and 1 hr and 24 hrs after LPS administration; treatment group, mice were injected two times, 30 minutes and 24 hrs after LPS administration. Mice were anesthetized prior to retro-orbital injection with a mixture of ketamine (10 mg/ml), xylazine (0.25 mg/ml), and acepromazine (0.25 mg/ml).
# The pharmacological effect of IP3R3 peptide was tested in LPS-induced murine model of sepsis. Male CD1 mice were challenged by intraperitoneal injection (i.p.) of LPS (30 mg/kg body weight) and infiltration of neutrophils in lung, a measure of lung inflammation was determined. Lungs were perfused with PBS, weighed, frozen and used for measuring lung myeloperoxidase (MPO) activity, signature of activated neutrophils. […] Furthermore, it was determined whether IP3R3 peptide protects from polymicrobial sepsis induced by cecal ligation and puncture (CLP). CLP causes lethal peritonitis that is accompanied by acute lung injury (ALI). It is well-excepted and clinically relevant method in experimental rodents.
# The dose-response of IP3R3 peptide was further tested in LPS-induced murine model of sepsis. Male CD1 mice were challenged by i.p. injection of LPS at LD80 dose. Mice received a retro-orbital i.v. injection of IP3R3 peptide at doses 0.01, 0.033, 0.1, 0.33, 1.0, 3.3 and 10 μM per kg of the body weight. Mice were injected with IP3R3 peptide three times, 30 minutes prior to, and 1 and 24 hrs after LPS administration. A percent of survived animals in each group was plotted as a function of IP3R3 dose. […] The ED50 (effective dose, 50%) as 80 nM/kg was calculated using a three-parameter logistic equation: y=min+([…])/1+10^LogED50-x Where min and max are minimum and maximum of response.
# The effect of EBIN on mortality rate from LPS-induced sepsis was determined. Mice received i.v. retro-orbital injection of AP-EBIN or AP control peptide, 30 minutes prior to and 1 hr after LPS administration at LD90 dose. […] In this experiment, Myr-EBIN was injected in tail vein 30 min and 24 hrs after LPS challenged. […] It is concluded that administration of EBIN prior to systemic inflammation has much higher beneficial outcome.
# [2] = test system: IP3R; settings: background statement, MT destabilizing or stabilizing agents; cited from earlier work
# [3] = test system: HMVECs; assay: Thrombin-induced Ca2+ release from stores in HMVECs (Fura 2-AM 340/380 ratio); format: cell-based; settings: 5 μg/ml taxol for 20 min prior to thrombin stimulation
# Description: A. HMVECs pre-treated with AP-attached IP3R3 peptide or control (AP) peptide were loaded with Fura 2-AM and 340/380 ratio was calculated after stimulation of cells with thrombin (50 nM) in the absence and in the presence of extracellular Ca^2+. Arrow, time of thrombin addition. […] The increase is normalized to control non-treated cells from the same experiment (n=4).
# The effects of IP3R peptide and taxol were compared in regulating Ca^2+ release.
# [4] = test system: lung injury; settings: background statement; cited from earlier work
# [5] = test system: HPAECs; assay: Agonist-induced intracellular calcium transient in HPAEC monolayers (Fura-2 340/380); format: cell-based, Human; settings: 1 μM Myr-peptide, 50 nM thrombin or 90 μM histamine
# Description: [Ca2+]i transient after stimulation of HPAEC monolayers with 50 nM thrombin (A) or 90 μM histamine (B). Mean value; n=20 cells. Arrow, time of stimulation.
# (§1) To determine the inhibitory properties of EBIN in cells, Human Pulmonary Aorta Endothelial Cell (HPAECs) monolayers pretreated with EBIN or with a control peptide at the concentration of 1 μM were challenged with thrombin. The interaction between EB3 and IP3R3 receptor was analyzed using a Western Blot analysis. […] EBIN but not a control peptide mitigated agonist-induced increase in intracellular calcium. [Ca2-F]i transient after stimulation of HPAEC monolayers with pro-inflammatory cytokines.
# [6] = molecular target: T1, EB3/IP3R3 interaction (Homo sapiens, UniProt Q9UPY8); assay: EB3-IP3R3 interaction by immunoprecipitation/Western blot in HPAECs challenged with thrombin; format: cell-based; settings: HPAECs pretreated with 1 μM AP-EBIN; 50 nM thrombin
# T1 construct: HPAECs pretreated with 1 μM AP-EBIN or control peptide (AP) were challenged with 50 nM thrombin; endogenous in cells; host or cells: HPAEC (human pulmonary aorta endothelial cells)
# Description: HPAECs pretreated with 1 μM AP-EBIN or control peptide (AP) were challenged with 50 nM thrombin. The interaction between EB3 and IP3R3 was analyzed at different time-points after thrombin stimulation. EB3 was immune-precipitated with specific Abs and resulted precipitates were probed for EB3 and IP3R3.
# as §1
# [7] = test system: histamine-induced vasodilation; assay: Awake blood pressure measurement in mice, histamine-induced vasodilation; format: in vivo; settings: AP-EBIN 1 μM/kg i.v.
# Description: Awake Blood Pressure Measurement in Mice-Mice were anesthetized and surgically prepared for placement of arterial (carotid) and venous (external jugular) catheters. One hour after surgery the blood pressure was monitored directly using a pressure transducer. Subsequent intravenous (i.v.) injections of AP-EBIN peptide (1 μM/kg body weight; green) or control AP peptide (red) and histamine (10 mg/kg body weight) were performed through jugular vein catheter; the arrow indicates the time of injection.
# (§2) The activity of nitric oxide synthase 3(eNOS), an endothelial-specific enzyme that produces NO, is regulated by calcium signaling, particularly, through eNOS interaction with calmodulin, and is a known cause of hyperpermeability of endothelial barrier during inflammation. Because EBIN inhibits calcium signaling it was postulated that the barrier-protective effect of EBIN, in part, is due to inhibition of eNOS. Therefore, the effect of EBIN on basal and agonist-induced production of NO was measured. NO formation was measured using porphyrinic NO electrodes coupled to a FAS1 femtostat and a personal computer with electrochemical software (Gamry Instruments). The electrode current, which is proportional to NO concentration, was measured as a function of time.
# [8] = test system: IgE-mediated anaphylactic reaction; assay: Subcutaneous vascular leak (Evans Blue) following IgE-mediated anaphylactic reaction; format: in vivo; settings: mice, intradermal IgE-HSA, HSA challenge 24 hr later; Myr-peptide 1 μM/kg i.v. 30 min prior to HSA
# Description: Mice received intradermal injection of IgE-HSA in the ear (A) and back (B) and 24 hr later, iv injection of Evans Blue and HSA (1-3) or saline (4-5). Groups 1 and 4 received saline, 2—control peptide (loss-of-binding) and 3 and 5—Myr-EBIN iv injection (1 μM/kg) 30 min prior to HSA. […] C. […] Evans Blue was extracted from ear tissue and Evans Blue concentration was measured at A=620 nm and normalized to the tissue weight. *, p<0.05, n=6 mice/group.
# Airway microvascular hyperpermeability, the result of elevated plasma VEGF, is one of the critical factors contributing to abnormal airway function in patients with classic asthma and its cough variant. Because acute allergic asthmatic response is mainly due to IgE-mediated hypersensitivity, we also determined whether EBIN protects from subcutaneous vascular leak following an IgE-mediated anaphylactic reaction. […] These date indicate that EBIN might be effectively used to improve the lung function and overall health of patients with chronic or acute forms of allergic asthma, and curtail the asthmatic inflammatory response.
# [9] = test system: HPAECs; assay: NO production in HPAECs (porphyrinic NO electrodes); format: cell-based, Human; settings: first 20 min
# Description: HPAECs were pretreated with control peptide (loss-of-activity) or Myr-EBIN and basal (A, in response to addition of L-arginin) and agonist-induced (B, thrombin and histamine) NO production was measured for the first 20 min stimulation.
# as §2
# [10] = 50 mg/kg LPS, vs loss-of-binding peptide
# T1 sequence (Q9UPY8 whole entry): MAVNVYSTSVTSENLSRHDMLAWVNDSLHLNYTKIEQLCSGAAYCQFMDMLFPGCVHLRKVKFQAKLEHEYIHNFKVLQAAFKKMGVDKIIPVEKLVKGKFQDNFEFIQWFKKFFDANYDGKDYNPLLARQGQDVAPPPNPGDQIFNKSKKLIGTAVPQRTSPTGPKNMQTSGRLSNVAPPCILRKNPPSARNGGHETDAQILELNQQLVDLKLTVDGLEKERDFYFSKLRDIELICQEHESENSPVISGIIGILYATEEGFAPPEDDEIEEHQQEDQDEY
compound,measurement,setting,value
"CC[C@H](C)[C@H](NC(=O)[C@H](C)NC(=O)[C@@H](NC(=O)[C@@H]1CCCN1C(=O)[C@@H](NC(=O)[C@H](CCC(=O)O)NC(=O)[C@@H](NC(=O)[C@H](Cc1c[nH]c2ccccc12)NC(=O)[C@H](CC(C)C)NC(=O)[C@H](CCCNC(=N)N)NC(=O)[C@H](C)NC(=O)[C@H](Cc1ccccc1)NC(=O)[C@@H](N)CCCCN)[C@@H](C)O)[C@@H](C)CC)[C@@H](C)O)C(=O)N[C@H](C(=O)O)[C@@H](C)O [IP3R3 peptide, KFARLWTEIPTAIT] (H-KFARLWTEIPTAIT-OH)","survival / mortality, LD50 LPS challenge","[1]; 30 mg/kg LPS i.p., peptide i.v. 30 minutes prior to and 1 hr after LPS, vs AP control",marked improvement in survival rate; also recorded: mortality reduction
same,toxicity within the dose range,"[1]; mice, 0.01 to 10 μM per kg i.v., three injections",low toxicity
COc1cc2c(c(OC)c1OC)-c1ccc(OC)c(=O)cc1[C@@H](NC(C)=O)CC2 [colchicine],IP3-gated release of Ca2+,[2],inhibits IP3-gated release of Ca2+
COC(=O)Nc1nc2ccc(C(=O)c3cccs3)cc2[nH]1 [nocodazole],IP3-gated release of Ca2+,[2],inhibits IP3-gated release of Ca2+
CC(=O)O[C@H]1C(=O)[C@@]2(C)[C@H]([C@H](OC(=O)c3ccccc3)[C@]3(O)C[C@H](OC(=O)[C@H](O)[C@@H](NC(=O)c4ccccc4)c4ccccc4)C(C)=C1C3(C)C)[C@]1(OC(C)=O)CO[C@@H]1C[C@@H]2O [taxol],release of Ca2+ from ER in response to thrombin,[3],inhibits release of Ca^2+ from ER to the same extent as IP3R3 peptide
same,IP3-gated release of Ca2+,[2],inhibits IP3-gated release of Ca2+
same,lung injury in mice models,[4],attenuate the lung injury
FTEIPTI (EB binding peptide) [EBIN],agonist-induced increase in intracellular calcium ([Ca2+]i transient),[5],significantly inhibited the intracellular calcium flux
same,"interaction between EB3 and IP3R3, basal and after thrombin",[6],attenuated basal and thrombin-induced interaction between EB3 and IP3R3; also recorded: markedly reduced
same,baseline (systolic) blood pressure,[7],no effect on baseline blood pressure
same,histamine-induced blood pressure drop / vasodilation,[7]; histamine 10 mg/kg i.v.,significantly inhibited histamine-induced vasodilation; also recorded: prevented blood pressure drop in response to histamine
same,subcutaneous vascular leak (Evans Blue) in ear and back,[8],significantly attenuates subcutaneous vascular leak; also recorded: significantly attenuated
same,"survival rate, LPS LD90, pre-treatment with Myr-EBIN",[1]; [10],reduced mortality
same,"survival rate, LPS LD90, post-treatment with Myr-EBIN","[1]; 50 mg/kg LPS, Myr-EBIN 1 microM/kg tail vein 30 min and 24 hrs after LPS, vs loss-of-binding peptide",insignificant improvement in survival rate; also recorded: some but not significant improvement of the survival
same,"survival / mortality, LPS LD90, AP-EBIN","[1]; CD1 mice, 50 mg/kg LPS i.p., AP-EBIN 1 microM/kg retro-orbital i.v. starting 30 minutes prior to LPS, 120-hr, vs AP, 50 mg/kg",marked improvement in survival rate; also recorded: reduced mortality
same,basal NO production,[9]; response to L-arginin,no effect; also recorded: did not affect basal NO level
same,agonist-induced NO production,[9]; thrombin and histamine,significantly attenuated agonist-induced NO production
Myr-EBIN: myristoylated EBIN (SEQ ID NO: 3) (Myristoyl-FTEIPTI),agonist-induced increase in intracellular calcium ([Ca2+]i transient),[5],mitigates agonist-induced increase in intracellular calcium
same,"survival rate, LPS LD90, pre-treatment with Myr-EBIN",[1]; [10],significant increase
